System: various cell lines of different tumor origins
Assay: Inhibition of cell proliferation, InCell Analyzer assay
Type: cell-based
Protocol: C. Inhibition of Cell Proliferation
For InCell Analyser assay, various cell lines of different tumor origins were grown to 70-80% confluency in appropriate culture media containing 10% fetal bovine serum at 37° C. in a 5% CO2 incubator. On day-1, cells were seeded at 2 densities in 384-well plates and incubated at 37° C. overnight. Stock compound plates were prepared in advance which contained dimethyl sulfoxide (DMSO) alone and a 9-point half-log decreasing dose range of the compound of Example 22 in DMSO. The compound plates were stored at −80° C. and each plate was only thawed once and used. On day 0, the main assay plates received compound or DMSO via a sonic delivery system (ECHO). The highest final concentration of compound of the dose range in the culture plates was 10 uM. These plates were cultured at 37° C. for 3 days. […] On day 3, the compound treated plates were stained and fixed to measure proliferation, apoptosis, and mitotic index using an InCell1000 analyser. A nuclear stain was used to identify cells in the wells. By counting the number of nuclei, the proliferation index of compound treated groups were calculated as a percentage relative to the DMSO control, which was set to 100%. The IC50 values were calculated using model 205 in ExcelFit.

IC50 (5637, Bladder): > 5 µM | IC50 (A7, Skin): 1 to 5 µM | IC50 (AGS, Stomach): 1 to 5 µM | IC50 (B-cell, BC-1, lymphoma - B cell unspecified): 1 to 5 µM | IC50 (B-cell, BC-2, lymphoma - B cell unspecified): 1 to 5 µM | IC50 (B-cell, BC-3, lymphoma - B cell unspecified): 1 to 5 µM | IC50 (B-cell, DB, lymphoma - diffuse large B cell): 1 to 5 µM | IC50 (C3A, Liver): 1 to 5 µM | IC50 (C32TG, Skin): 1 to 5 µM | IC50 (C-4I, Cervix): 1 to 5 µM | IC50 (CEM/C1, CEM/C1, acute lymphoblastic leukaemia): > 5 µM | IC50 (CESS, AML): > 5 µM | IC50 (CML-T1, CML-T1, CML blast phase): < 1 µM | IC50 (COLO 704, COLO-704, Ovary): > 5 µM | IC50 (CRO-AP5, CRO-AP5, lymphoma - B cell unspecified): > 5 µM | IC50 (DK-MG, glioma): 1 to 5 µM | IC50 (EM-2, CML blast phase): > 5 µM | IC50 (ES2, Ovary): 1 to 5 µM | IC50 (GCT, Sarcoma): 1 to 5 µM | IC50 (H4, glioma): > 5 µM | IC50 (HN5, H&N): 1 to 5 µM | IC50 (HOS, Sarcoma): < 1 µM | IC50 (HT-3, Cervix): > 5 µM | IC50 (Homo sapiens, 639-V, Bladder): 1 to 5 µM | IC50 (Homo sapiens, 647-V, Bladder): 1 to 5 µM | IC50 (Homo sapiens, 769-P, Kidney): 1 to 5 µM | IC50 (Homo sapiens, 786-0, 786-0, Kidney): 1 to 5 µM | IC50 (Homo sapiens, A101D, Skin): 1 to 5 µM | IC50 (Homo sapiens, A 172, A172, glioma): 1 to 5 µM | IC50 (Homo sapiens, A204, A204, Sarcoma - rhabdomyosarcoma): 1 to 5 µM | IC50 (Homo sapiens, A498, A-498, Kidney): 1 to 5 µM | IC50 (Homo sapiens, A673, A673, Sarcoma): < 1 µM | IC50 (Homo sapiens, A2780, A2780, Ovary): < 1 µM | IC50 (Homo sapiens, A-375, A375, Skin): 1 to 5 µM | IC50 (Homo sapiens, A-427, A427, Lung): 1 to 5 µM | IC50 (Homo sapiens, A-431, A-431, Skin): < 1 µM | IC50 (Homo sapiens, ACHN, Kidney): 1 to 5 µM | IC50 (Homo sapiens, AN3-CA, AN3CA, Uterus): 1 to 5 µM | IC50 (Homo sapiens, ARH-77, ARH-77, Myeloma - plasma cell): 1 to 5 µM | IC50 (Homo sapiens, ASPC1, AsPC-1, Pancreas): < 1 µM | IC50 (Homo sapiens, BE(2)-C, BE(2)C, Brain): < 1 µM | IC50 (Homo sapiens, BFTC-905, BFTC-905, Bladder): < 1 µM | IC50 (Homo sapiens, BHT-101, BHT-101, Thyroid): > 5 µM | IC50 (Homo sapiens, BPH-1, BPH1, Prostate): 1 to 5 µM | IC50 (Homo sapiens, BT-20, BT-20, Breast): 1 to 5 µM | IC50 (Homo sapiens, BT-474, BT474, Breast): 1 to 5 µM | IC50 (Homo sapiens, BV-173, BV-173, CML blast phase): 1 to 5 µM | IC50 (Homo sapiens, BXPC-3, BxPC-3, Pancreas): > 5 µM | IC50 (Homo sapiens, BeWo, Placenta): 1 to 5 µM | IC50 (Homo sapiens, C-4-II, C-4II, Cervix): 1 to 5 µM | IC50 (Homo sapiens, C-33-A, C-33A, Cervix): 1 to 5 µM | IC50 (Homo sapiens, CAKI-1, Caki-1, Kidney): > 5 µM | IC50 (Homo sapiens, CAKI-2, Caki-2, Kidney): 1 to 5 µM | IC50 (Homo sapiens, CAL-27, Cal27, H&N): > 5 µM | IC50 (Homo sapiens, CAL-54, CAL-54, Kidney): 1 to 5 µM | IC50 (Homo sapiens, CAL-62, CAL-62, Thyroid): 1 to 5 µM | IC50 (Homo sapiens, CAPAN-1, Capan-1, Pancreas): < 1 µM | IC50 (Homo sapiens, CCF-STTG1, CCF-STTG1, glioma): 1 to 5 µM | IC50 (Homo sapiens, CGTH-W-1, CGTH-W-1, Thyroid): 1 to 5 µM | IC50 (Homo sapiens, CHL-1, CHL-1, Skin): 1 to 5 µM | IC50 (Homo sapiens, CHP-212, CHP-212, neuroblastoma): < 1 µM | IC50 (Homo sapiens, COLO-829, Colo-829, Skin): > 5 µM | IC50 (Homo sapiens, CRO-AP2, CRO-AP2, lymphoma - B cell unspecified): 1 to 5 µM | IC50 (Homo sapiens, Caov-3, CAOV-3, Ovary): 1 to 5 µM | IC50 (Homo sapiens, Capan-2, Capan-2, Pancreas): 1 to 5 µM | IC50 (Homo sapiens, D283 Med, D283Med, medulloblastoma): 1 to 5 µM | IC50 (Homo sapiens, DBTRG-05MG, glioma): > 5 µM | IC50 (Homo sapiens, DU-4475, DU4475, Breast): 1 to 5 µM | IC50 (Homo sapiens, Detroit 562, Detroit562, H&N): 1 to 5 µM | IC50 (Homo sapiens, DoTc2-4510, DoTc2-4510, Cervix): > 5 µM | IC50 (Homo sapiens, EFM-19, EFM-19, Breast): 1 to 5 µM | IC50 (Homo sapiens, EKVX, Lung): 1 to 5 µM | IC50 (Homo sapiens, FaDu, H&N): 1 to 5 µM | IC50 (Homo sapiens, G-401, G-401, kidney): 1 to 5 µM | IC50 (Homo sapiens, G-402, G-402, Kidney): 1 to 5 µM | IC50 (Homo sapiens, GDM-1, GDM-1, AML): < 1 µM | IC50 (Homo sapiens, HCC38, HCC38, Breast): 1 to 5 µM | IC50 (Homo sapiens, HCC1143, HCC1143, Breast): 1 to 5 µM | IC50 (Homo sapiens, HCC1395, HCC1395, Breast): 1 to 5 µM | IC50 (Homo sapiens, HCC1937, HCC1937, Breast): > 5 µM | IC50 (Homo sapiens, HCC1954, HCC1954, Breast): 1 to 5 µM | IC50 (Homo sapiens, HCC2157, HCC2157, Breast): > 5 µM | IC50 (Homo sapiens, HCC2218, HCC2218, Breast): > 5 µM | IC50 (Homo sapiens, HCC 2998, HCC-2998, Colon): 1 to 5 µM | IC50 (Homo sapiens, HEC-1-A, Uterus): > 5 µM | IC50 (Homo sapiens, HEC-1B, HEC-1-B, Uterus): 1 to 5 µM | IC50 (Homo sapiens, HEL 92.1.7, HEL-92.1.7, erythroleukemia): > 5 µM | IC50 (Homo sapiens, HMCB, Skin): 1 to 5 µM | IC50 (Homo sapiens, HOP-62, HOP-62, Lung): > 5 µM | IC50 (Homo sapiens, HOP-92, HOP-92, Lung): 1 to 5 µM | IC50 (Homo sapiens, HPAC, Pancreas): < 1 µM | IC50 (Homo sapiens, HPAF-II, HPAFII, Pancreas): > 5 µM | IC50 (Homo sapiens, HT1197, HT1197, Bladder): > 5 µM | IC50 (Homo sapiens, HT-29, HT-29, Colon): < 1 µM | IC50 (Homo sapiens, HT-1080, HT-1080, Sarcoma - fibrosarcoma): < 1 µM | IC50 (Homo sapiens, HT-1376, HT1376, Bladder): > 5 µM | IC50 (Homo sapiens, HeLa, Cervix): > 5 µM | IC50 (Homo sapiens, Hep3B, Liver): 1 to 5 µM | IC50 (Homo sapiens, HepG2, HepG2, Liver): 1 to 5 µM | IC50 (Homo sapiens, Hs746T, Stomach): > 5 µM | IC50 (Homo sapiens, HuP-T4, HuP-T4, Pancreas): > 5 µM | IC50 (Homo sapiens, HuT78, Hut78, lymphoma - cutaneous T cell): 1 to 5 µM | IC50 (Homo sapiens, IGROV-1, IGROV1, Ovary): < 1 µM | IC50 (Homo sapiens, J-RT3-T3-5, J.RT3-T3.5, acute lymphoblastic leukaemia): 1 to 5 µM | IC50 (Homo sapiens, JEG-3, JEG-3, Placenta): < 1 µM | IC50 (Homo sapiens, K562, K-562, CML): > 5 µM | IC50 (Homo sapiens, KATO III, KATOIII, Stomach): > 5 µM | IC50 (Homo sapiens, KM12, KM12, Colon): > 5 µM | IC50 (Homo sapiens, LOX IMVI, Skin): > 5 µM | IC50 (Homo sapiens, LS174T, Colon): 1 to 5 µM | IC50 (Homo sapiens, LS-1034, LS1034, Colon): < 1 µM | IC50 (Homo sapiens, MC-IXC, neuroblastoma): < 1 µM | IC50 (Homo sapiens, MCF7, MCF7, Breast): < 1 µM | IC50 (Homo sapiens, MDA-MB-175-VII, Breast): 1 to 5 µM | IC50 (Homo sapiens, MDA-MB-231, MDA-MB-231, Breast): 1 to 5 µM | IC50 (Homo sapiens, MDA-MB-435, MDA-MB-435, Breast (Melanoma)): 1 to 5 µM | IC50 (Homo sapiens, MDA-MB-453, MDA-MB-453, Breast): 1 to 5 µM | IC50 (Homo sapiens, MDA-MB-468, MDA-MB-468, Breast): 1 to 5 µM | IC50 (Homo sapiens, MES-SA, Sarcoma): > 5 µM | IC50 (Homo sapiens, MIA PaCa-2, MiaPaCa, Pancreas): < 1 µM | IC50 (Homo sapiens, MOLT-16, MOLT-16, acute lymphoblastic leukaemia): 1 to 5 µM | IC50 (Homo sapiens, MV4-11, MV-4-11, acute leukaemia of ambiguous lineage): 1 to 5 µM | IC50 (Homo sapiens, Malme-3M, Skin): > 5 µM | IC50 (Homo sapiens, NCI-H69, NCI-H69, Lung): 1 to 5 µM | IC50 (Homo sapiens, NCI-H82, NCI-H82, Lung): 1 to 5 µM | IC50 (Homo sapiens, NCI-H146, NCI-H146, Lung): > 5 µM | IC50 (Homo sapiens, NCI-H209, NCI-H209, Lung): 1 to 5 µM
SMILES: COc1cc(N2CCC(N3CCCCC3)CC2)ccc1Nc1nccc(-c2c(-c3cccc(C(=O)Nc4c(F)cccc4F)c3)nc3ccccn23)n1 [Example 22, 3-[3-(2-{[4-(1,4′-bipiperidin-1′-yl)-2-(methyloxy)phenyl]amino}-4-pyrimidinyl)imidazo[1,2-a]pyridin-2-yl]-N-(2,6-difluorophenyl)benzamide]
IC50 (Homo sapiens, HCC70, HCC70, Breast): 1 to 5 µM | IC50 (Homo sapiens, MCF-10A, MCF10a, Breast (Normal)): < 1 µM
